This note sets out measurements from patent US11505543B2, “4-oxo-3,4-dihydroquinazoline compounds as inhibitors of human immunodeficiency virus replication” (VIIV HEALTHCARE UK (NO.5) LIMITED, priority 2018, dated 2022).

Series [1] in a line: Compound cytotoxicity, XTT-based colorimetric assay. It is filed as cell-based. The settings on record: human, uninfected MT2 cells, day 4, XTT. An outline of the steps: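 Run under the antiviral-assay protocol but without virus. Viability was read on day 4 and CC50 values were derived from the readout.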
In series [2] the test system is recombinant NL4-3 virus (nef section replaced with Renilla luciferase gene) in MT-2 cells. As to the kind of experiment: HIV cell culture assay (antiviral activity, luciferase readout). The following applies: Renilla, NL43, MT-2 cells infected for 4-5 days with recombinant NL4-3 Renilla luciferase virus, serial dilutions of compound. It is filed as cell-based. In a few lines:
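Test compound in serial dilution was present while MT-2 cells were infected for 4–5 days with recombinant NL4-3 virus made in 293T cells. Antiviral activity was quantified as Renilla luciferase activity, read with a live-cell substrate. EC50 came from the median-effect equation.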

Structures are written as SMILES.

Usually CC50 stands for the concentration at which the toxic effect on the cells reaches its halfway point. A higher CC50 goes with better tolerance by the cells. In general, EC50 refers to the concentration needed to bring the measured effect to its halfway point.

In the case of `Cc1cccc(-c2ccc3c(=O)n(-c4ccc(Cl)c5c(NS(C)(=O)=O)nn(CC(F)F)c45)c([C@H](Cc4cc(F)cc(F)c4)NC(=O)Cn4nc(C(F)F)c5c4C(F)(F)[C@@H]4C[C@H]54)nc3c2)n1` [Example 175, N-((S)-1-(3-(4-chloro-1-(2,2-difluoroethyl)-3-(methylsulfonamido)-1H-indazol-7-yl)-7-(6-methylpyridin-2-yl)-4-oxo-3,4-dihydroquinazolin-2-yl)-2-(3,5-difluorophenyl)ethyl)-2-((3bS,4aR)-3-(difluoromethyl)-5,5-difluoro-3b,4,4a,5-tetrahydro-1H-cyclopropa[3,4]cyclopenta[1,2-c]pyrazol-1-yl)acetamide], the CC50 at 4 day in series [1] was > 500 nM. Further, the EC50 in series [2] was 0.08 nM.
The like results for `Cn1nc(NS(C)(=O)=O)c2c(Cl)ccc(-n3c([C@H](Cc4cc(F)cc(F)c4)NC(=O)Cn4nc(C(F)F)c5c4C(F)(F)[C@@H]4C[C@H]54)nc4cc(-c5c(Cl)cccc5Cl)ccc4c3=O)c21` (atropisomer, axis not shown; (aR)) [Example 104, N-((S)-1-(3-(4-chloro-1-methyl-3-(methylsulfonamido)-1H-indazol-7-yl)-7-(2,6-dichlorophenyl)-4-oxo-3,4-dihydroquinazolin-2-yl)-2-(3,5-difluorophenyl)ethyl)-2-((3bS,4aR)-3-(difluoromethyl)-5,5-difluoro-3b,4,4a,5-tetrahydro-1H-cyclopropa[3,4]cyclopenta[1,2-c]pyrazol-1-yl)acetamide] were, in that order, > 1000 nM and 0.68 nM.
The like results for `CS(=O)(=O)Nc1nn(CC(F)(F)F)c2c(-n3c([C@H](Cc4cc(F)cc(F)c4)NC(=O)Cn4nc(C(F)(F)F)c5c4C(F)(F)[C@@H]4C[C@H]54)nc4cc(-c5ccccc5F)ccc4c3=O)ccc(Cl)c12` [Example 182, N-((S)-1-(3-(4-chloro-3-(methylsulfonamido)-1-(2,2,2-trifluoroethyl)-1H-indazol-7-yl)-7-(2-fluorophenyl)-4-oxo-3,4-dihydroquinazolin-2-yl)-2-(3,5-difluorophenyl)ethyl)-2-((3bS,4aR)-5,5-difluoro-3-(trifluoromethyl)-3b,4,4a,5-tetrahydro-1H-cyclopropa[3,4]cyclopenta[1,2-c]pyrazol-1-yl)acetamide] were, in that order, > 500 nM and 0.87 nM.
Take `Cc1cc(C)nc(-c2ccc3c(=O)n(-c4ccc(Cl)c5c(NS(C)(=O)=O)nn(CC(F)F)c45)c([C@H](Cc4cc(F)cc(F)c4)NC(=O)Cn4nc(C(F)F)c5c4C(F)(F)[C@@H]4C[C@H]54)nc3c2)n1` (atropisomer, axis not shown; (aR)) [Example 128, N-((S)-1-(3-(4-chloro-1-(2,2-difluoroethyl)-3-(methylsulfonamido)-1H-indazol-7-yl)-7-(4,6-dimethylpyrimidin-2-yl)-4-oxo-3,4-dihydroquinazolin-2-yl)-2-(3,5-difluorophenyl)ethyl)-2-((3bS,4aR)-3-(difluoromethyl)-5,5-difluoro-3b,4,4a,5-tetrahydro-1H-cyclopropa[3,4]cyclopenta[1,2-c]pyrazol-1-yl)acetamide]: the CC50 at 4 day in series [1] was > 500 nM. Also, the EC50 in series [2] worked out at 0.069 nM.
The like results for `O=C(Cn1nc(C(F)F)cc1C(F)F)N[C@@H](Cc1cc(F)cc(F)c1)c1nc2cc(-c3ccccc3F)ccc2c(=O)n1-c1ccc(Cl)c2c(NS(=O)(=O)C3CC3)nn(CC(F)F)c12` (atropisomer, axis not shown) [Example 136, (S)-2-(3,5-bis(difluoromethyl)-1H-pyrazol-1-yl)-N-(1-(3-(4-chloro-3-(cyclopropanesulfonamido)-1-(2,2-difluoroethyl)-1H-indazol-7-yl)-7-(2-fluorophenyl)-4-oxo-3,4-dihydroquinazolin-2-yl)-2-(3,5-difluorophenyl)ethyl)acetamide] were, in that order, > 1000 nM and 9.5 nM.
The like results for `Cn1nc(NS(C)(=O)=O)c2c(Cl)ccc(-n3c([C@H](Cc4cc(F)cc(F)c4)NC(=O)Cn4nc(C(F)F)c5c4C(F)(F)[C@@H]4C[C@H]54)nc4cc(-c5ccc(C(=O)O)cc5)ccc4c3=O)c21` (atropisomer, axis not shown; (aR)) [Example 100, 4-(3-(4-chloro-1-methyl-3-(methylsulfonamido)-1H-indazol-7-yl)-2-((S)-1-(2-((3bS,4aR)-3-(difluoromethyl)-5,5-difluoro-3b,4,4a,5-tetrahydro-1H-cyclopropa[3,4]cyclopenta[1,2-c]pyrazol-1-yl)acetamido)-2-(3,5-difluorophenyl)ethyl)-4-oxo-3,4-dihydroquinazolin-7-yl)benzoic acid] were, in that order, > 1000 nM and 6.5 nM.
The matching figures for `CC(C)S(=O)(=O)c1cccc(-c2ccc3c(=O)n(-c4ccc(Cl)c5c(NS(C)(=O)=O)nn(C)c45)c([C@H](Cc4cc(F)cc(F)c4)NC(=O)Cn4nc(C(F)F)c5c4C(F)(F)[C@@H]4C[C@H]54)nc3c2)c1` (atropisomer, axis not shown; (aR)) [Example 123, N-((S)-1-(3-(4-chloro-1-methyl-3-(methylsulfonamido)-1H-indazol-7-yl)-7-(3-(isopropylsulfonyl)phenyl)-4-oxo-3,4-dihydroquinazolin-2-yl)-2-(3,5-difluorophenyl)ethyl)-2-((3bS,4aR)-3-(difluoromethyl)-5,5-difluoro-3b,4,4a,5-tetrahydro-1H-cyclopropa[3,4]cyclopenta[1,2-c]pyrazol-1-yl)acetamide]: > 500 nM and 0.15 nM.
For `Cn1nc(NS(C)(=O)=O)c2c(Cl)ccc(-n3c([C@H](Cc4cc(F)cc(F)c4)NC(=O)Cn4nc(C(F)F)c5c4C(F)(F)[C@@H]4C[C@H]54)nc4cc(-c5ccccc5Oc5ccccc5)ccc4c3=O)c21` (atropisomer, axis not shown; (aR)) [Example 107, N-((S)-1-(3-(4-chloro-1-methyl-3-(methylsulfonamido)-1H-indazol-7-yl)-4-oxo-7-(2-phenoxyphenyl)-3,4-dihydroquinazolin-2-yl)-2-(3,5-difluorophenyl)ethyl)-2-((3bS,4aR)-3-(difluoromethyl)-5,5-difluoro-3b,4,4a,5-tetrahydro-1H-cyclopropa[3,4]cyclopenta[1,2-c]pyrazol-1-yl)acetamide], in series [1], the half-maximal cytotoxic concentration (CC50) at 4 day is > 1000 nM. For the same compound, the EC50 in series [2] came out at 10 nM.
The like results for `O=C(Cn1ccc(C2CC2)n1)N[C@@H](Cc1cc(F)cc(F)c1)c1nc2cc(-c3cccnc3)ccc2c(=O)n1-c1ccc(S(=O)(=O)N2CCOCC2)cc1` [Example 20, (S)-2-(3-cyclopropyl-1H-pyrazol-1-yl)-N-(2-(3,5-difluorophenyl)-1-(3-(4-(morpholinosulfonyl)phenyl)-4-oxo-7-(pyridin-3-yl)-3,4-dihydroquinazolin-2-yl)ethyl)acetamide] were, in that order, > 1000 nM and 3.7 nM.
The matching figures for `O=C(Cn1ccc(C2CC2)n1)N[C@@H](Cc1cc(F)cc(F)c1)c1nc2cc(-c3ccccc3F)ccc2c(=O)n1-c1ccc(Cl)c2c(NS(=O)(=O)C3CC3)nn(CC(F)F)c12` (atropisomer, axis not shown) [Example 134, (S)-N-(1-(3-(4-chloro-3-(cyclopropanesulfonamido)-1-(2,2-difluoroethyl)-1H-indazol-7-yl)-7-(2-fluorophenyl)-4-oxo-3,4-dihydroquinazolin-2-yl)-2-(3,5-difluorophenyl)ethyl)-2-(3-cyclopropyl-1H-pyrazol-1-yl)acetamide]: > 1000 nM and 10 nM.
The matching figures for `CCS(=O)(=O)c1cccc(-c2ccc3c(=O)n(-c4ccc(Cl)c5c(NS(C)(=O)=O)nn(C)c45)c([C@H](Cc4cc(F)cc(F)c4)NC(=O)Cn4nc(C(F)F)c5c4C(F)(F)[C@@H]4C[C@H]54)nc3c2)c1` (atropisomer, axis not shown; (aR)) [Example 121, N-((S)-1-(3-(4-chloro-1-methyl-3-(methylsulfonamido)-1H-indazol-7-yl)-7-(3-(ethylsulfonyl)phenyl)-4-oxo-3,4-dihydroquinazolin-2-yl)-2-(3,5-difluorophenyl)ethyl)-2-((3bS,4aR)-3-(difluoromethyl)-5,5-difluoro-3b,4,4a,5-tetrahydro-1H-cyclopropa[3,4]cyclopenta[1,2-c]pyrazol-1-yl)acetamide]: > 500 nM and 0.11 nM.
Regarding `O=C(Cn1nc(C(F)F)c2c1C(F)(F)[C@@H]1C[C@H]21)N[C@@H](Cc1cc(F)cc(F)c1)c1nc2cc(-c3ccc(Cl)cc3Cl)ccc2c(=O)n1-c1ccc(S(=O)(=O)N2CCOCC2)cc1` [Example 80, N-((S)-1-(7-(2,4-dichlorophenyl)-3-(4-(morpholinosulfonyl)phenyl)-4-oxo-3,4-dihydroquinazolin-2-yl)-2-(3,5-difluorophenyl)ethyl)-2-((3bS,4aR)-3-(difluoromethyl)-5,5-difluoro-3b,4,4a,5-tetrahydro-1H-cyclopropa[3,4]cyclopenta[1,2-c]pyrazol-1-yl)acetamide], the CC50 at 4 day in series [1] is > 1000 nM. Moreover, in series [2], the EC50 is 8 nM.
The like results for `CC(C)c1ccn(CC(=O)N[C@@H](Cc2cc(F)cc(F)c2)c2nc3cc(-c4ccccc4F)ccc3c(=O)n2-c2ccc(Cl)c3c(NS(=O)(=O)C4CC4)nn(CC(F)F)c23)n1` (atropisomer, axis not shown) [Example 135, (S)-N-(1-(3-(4-chloro-3-(cyclopropanesulfonamido)-1-(2,2-difluoroethyl)-1H-indazol-7-yl)-7-(2-fluorophenyl)-4-oxo-3,4-dihydroquinazolin-2-yl)-2-(3,5-difluorophenyl)ethyl)-2-(3-isopropyl-1H-pyrazol-1-yl)acetamide] were, in that order, > 1000 nM and 13 nM.
